Reference: ChEMBL document CHEMBL1201862, “PubChem BioAssay data set” (2004)
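Five compound concentrations were applied to cells in 96-well plates for 48 hours; endpoints were derived by simple linear interpolation of the resulting dose-response curve. Abbreviation: GI50, concentration required for 50% inhibition of growth.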 Active and inactive are the calls of the source. Cut-off read from the data, not from the text of the source: active = GI50 up to about 1.1 µM and inactive = higher.

Legend:
Assay in all cases: growth of human tumour cells (NCI), 48 h
A549 = test system: A549
ACHN = test system: ACHN
CAKI-1 = test system: CAKI-1
CCRF-CEM = test system: CCRF-CEM
DU-145 = test system: DU-145
HCC 2998 = test system: HCC 2998
HCT-15 = test system: HCT-15
HL-60 = test system: HL-60
K562 = test system: K562
KM12 = test system: KM12
NCI-H226 = test system: NCI-H226
NCI-H522 = test system: NCI-H522
NCI/ADR-RES = test system: NCI/ADR-RES
PC-3 = test system: PC-3
SF-539 = test system: SF-539
SNB-75 = test system: SNB-75
TK-10 = test system: TK-10
UO-31 = test system: UO-31
EKVX = test system: EKVX
RXF 393 = test system: RXF 393

Row | SMILES | GI50 (A549) | GI50 (ACHN) | GI50 (CAKI-1) | GI50 (CCRF-CEM) | GI50 (DU-145) | GI50 (HCC 2998) | GI50 (HCT-15) | GI50 (HL-60) | GI50 (K562) | GI50 (KM12) | GI50 (NCI-H226) | GI50 (NCI-H522) | GI50 (NCI/ADR-RES) | GI50 (PC-3) | GI50 (SF-539) | GI50 (SNB-75) | GI50 (TK-10) | GI50 (UO-31) | GI50 (EKVX) | GI50 (RXF 393)
1 | CN(C)CCNC(=O)c1cccc2c1Oc1cccc([N+](=O)[O-])c1O2 | 16 µM (inactive) | 18.7 µM (inactive) | 18.4 µM (inactive) | 29.6 µM (inactive) | 17.7 µM (inactive) | 23.7 µM (inactive) | 33.8 µM | 17.1 µM (inactive) | 20 µM (inactive) | 22.8 µM (inactive) | 12.7 µM (inactive) | 16.1 µM (inactive) | 19.1 µM (inactive) | 15.4 µM (inactive) | 18.2 µM (inactive) | 13.9 µM (inactive) | 21.4 µM (inactive) | 15.7 µM (inactive) | – | –
2 | CN(C)CCCN1c2ccccc2CCc2cccc([N+](=O)[O-])c21 | 37.3 µM (inactive) | 22.5 µM (inactive) | 20 µM (inactive) | 5.38 µM (inactive) | 17.4 µM (inactive) | 17.7 µM (inactive) | 15.6 µM | 15.5 µM (inactive) | 15.1 µM (inactive) | 17.1 µM (inactive) | 22.6 µM (inactive) | 15.8 µM (inactive) | 16.5 µM (inactive) | 19.8 µM (inactive) | 17.7 µM (inactive) | 6.34 µM (inactive) | 21.5 µM (inactive) | 17.4 µM (inactive) | 49.3 µM (inactive) | –
3 | CC(=O)OC1COC(Nc2nc(N)n(C)c(=O)c2N=O)C(OC(C)=O)C1OC(C)=O (stereo not drawn) | > 10 µM (inactive) | > 10 µM (inactive) | > 10 µM (inactive) | > 10 µM (inactive) | > 10 µM (inactive) | > 10 µM (inactive) | – | > 10 µM (inactive) | – | > 10 µM (inactive) | > 10 µM (inactive) | > 10 µM (inactive) | > 10 µM (inactive) | > 10 µM (inactive) | > 10 µM (inactive) | > 10 µM (inactive) | > 10 µM (inactive) | – | > 10 µM (inactive) | > 10 µM (inactive)
4 | O=c1cc(N2CCCC2)[nH]c(=O)n1-c1cccc(Cl)c1 | – | > 100 µM (inactive) | > 100 µM (inactive) | > 100 µM (inactive) | > 100 µM (inactive) | > 100 µM (inactive) | > 100 µM | > 100 µM (inactive) | > 100 µM (inactive) | > 100 µM (inactive) | > 100 µM (inactive) | > 100 µM (inactive) | > 100 µM (inactive) | > 100 µM (inactive) | > 100 µM (inactive) | > 100 µM (inactive) | > 100 µM (inactive) | – | > 100 µM (inactive) | > 100 µM (inactive)
5 | CC(C)[C@]12O[C@H]1[C@@H]1O[C@]13[C@]1(O[C@H]1C[C@H]1C4=C(CC[C@@]13C)C(=O)OC4)[C@@H]2O [TRIPTOLIDE] | – | 0.00679 µM (active) | – | 0.011 µM (active) | 0.0244 µM (active) | 0.0183 µM (active) | 0.014 µM | 0.00667 µM (active) | 0.017 µM (active) | 0.0274 µM (active) | 0.0216 µM (active) | 0.00881 µM (active) | 0.0261 µM (active) | 0.0181 µM (active) | 0.00745 µM (active) | 0.0101 µM (active) | < 0.014 µM (active) | 0.0124 µM (active) | 0.021 µM (active) | –
6 | O=C(O)c1ccccc1/C=C1/Nc2ccccc2C1=O | > 100 µM (inactive) | 57.3 µM (inactive) | > 100 µM (inactive) | 44.9 µM (inactive) | > 100 µM (inactive) | > 100 µM (inactive) | 41.5 µM | 64 µM (inactive) | > 100 µM (inactive) | 37.9 µM (inactive) | > 100 µM (inactive) | – | > 100 µM (inactive) | > 100 µM (inactive) | 92.9 µM (inactive) | > 100 µM (inactive) | > 100 µM (inactive) | 50 µM (inactive) | 60 µM (inactive) | > 100 µM (inactive)
7 | Cc1cccc2c1Oc1cc(Cl)ccc1C2NC(=O)CCN1CCOCC1 (stereo not drawn) | > 100 µM (inactive) | – | – | > 100 µM (inactive) | > 100 µM (inactive) | > 100 µM (inactive) | > 100 µM | 32.2 µM (inactive) | > 100 µM (inactive) | > 100 µM (inactive) | – | > 100 µM (inactive) | > 100 µM (inactive) | > 100 µM (inactive) | > 100 µM (inactive) | 21.8 µM (inactive) | > 100 µM (inactive) | 49.8 µM (inactive) | > 100 µM (inactive) | –
8 | CC1(c2ccc(Cl)s2)CC(c2ccc(Cl)s2)=C(C#N)C(=C(C#N)C#N)N1 (stereo not drawn) | 22.4 µM (inactive) | 17.5 µM (inactive) | 19.1 µM (inactive) | 16 µM (inactive) | 16.9 µM (inactive) | 18.9 µM (inactive) | 17.4 µM | 16.7 µM (inactive) | 29.6 µM (inactive) | 18 µM (inactive) | 26.9 µM (inactive) | – | 19.3 µM (inactive) | 17.6 µM (inactive) | 26.3 µM (inactive) | 22.2 µM (inactive) | 22.4 µM (inactive) | 18.7 µM (inactive) | 18.2 µM (inactive) | 16.9 µM (inactive)
